In US20260317325A1, “AMORPHOUS SUBSTANCE AND CRYSTAL OF DIOXOPIPERIDINE COMPOUND OR PHARMACEUTICALLY ACCEPTABLE SALT THEREOF, PREPARATION METHOD, AND USE” (JIANGSU HENGRUI PHARMACEUTICALS CO., LTD., priority 2023, published 2026):
Where a name gives a salt, the structure may show the parent alone. Read-outs that look alike come from different tables or passages of the source.

Tests used:
[1] = Procedure: Long-term/accelerated stability study: Samples of the free-state form were sealed in aluminum foil bags and left to stand under 25° C./60% RH and 40° C./75% RH conditions to study its stability.
Long-term/accelerated stability of salt forms: Samples were sealed in aluminum foil bags and left to stand under 25° C./60% RH and 40° C./75% RH conditions to study their stability.

Remark: listed apart in the source
[2] = high-temperature and high-humidity conditions
Procedure: Influencing factor stability study: Samples of the free-state form were taken, spread in open containers, and left to stand under high-temperature (40° C. and 60° C.) and high-humidity (RH 75% and RH 92.5%) conditions for 30 days to study its stability.
Influencing factor stability study of salt forms: Samples of the salt forms were taken, spread in open containers, and left to stand under high-temperature (40° C. and 60° C.) and high-humidity (RH 75%) conditions for 30 days to study their stability.

[3] = long-term accelerated conditions for 6 months

C[C@H]1CC2(CCN(c3ccc(C(=O)N4CCC(CN5CCN(c6cccc(N[C@H]7CCC(=O)NC7=O)c6)CC5)CC4)cc3F)CC2)CN1c1ccc(C#N)c(Cl)c1 [Amorphous form of maleate]
stability (in words) ([1]; long-term conditions for 6 months): good chemical and physical stability

C[C@H]1CC2(CCN(c3ccc(C(=O)N4CCC(CN5CCN(c6cccc(N[C@H]7CCC(=O)NC7=O)c6)CC5)CC4)cc3F)CC2)CN1c1ccc(C#N)c(Cl)c1 [Crystal form B of succinate]
stability (in words) [1, 3]: good chemical and physical stability

C[C@H]1CC2(CCN(c3ccc(C(=O)N4CCC(CN5CCN(c6cccc(N[C@H]7CCC(=O)NC7=O)c6)CC5)CC4)cc3F)CC2)CN1c1ccc(C#N)c(Cl)c1 [crystal form A of D-mandelate]
stability (in words) ([1]; long-term accelerated conditions for 6 months, listed as crystal form A of mandelate): good chemical and physical stability
crystal form before and after DVS testing (XRPD): the crystal form did not change before and after DVS testing
desorption versus adsorption process (humidity 0% to 95% RH): the desorption process of the sample overlapped with its adsorption process

C[C@H]1CC2(CCN(c3ccc(C(=O)N4CCC(CN5CCN(c6cccc(N[C@H]7CCC(=O)NC7=O)c6)CC5)CC4)cc3F)CC2)CN1c1ccc(C#N)c(Cl)c1 [free-state amorphous form]
stability (in words) [2]: good chemical stability
stability (in words) [1, 3]: good physical and chemical stability
